Patent US20210002231A1 (Centre National de la Recherche Scientifique, priority 2018, published 2021)
Starred links: 1 amine or outer side, 2 acyl side, 3 side chain; linkers in the order of their positions; H or OH if unused. Non-standard residues stand in square brackets, D forms with d. Residues, ends and D or L forms follow the SMILES beside them. *: point of attachment. Nva(5-(4-Bn-piperidin-1-yl)) = N[C@@H](CCCN1CCC(Cc2ccccc2)CC1)C(=O)O; X1 = O=C1[C@@H](N[*:1])Cc2ccccc2CN1CCC(=O)[*:2]; Dmt = Cc1cc(O)cc(C)c1C[C@H](N)C(=O)O; X4 = c1ccc2sc(*)nc2c1

Columns and labels:
NPFF2R [1] = biological target: T1, NPFF2R (Homo sapiens, UniProt Q9Y5X5); assay: Glo-sensor cAMP assay, agonist and antagonist mode; type: cell-based; set-up: expressed in transfected cells; HEK293-Glo20F cells (cAMP); settings: evaluated at 0.5 and 5 μM
T1 sequence (Q9Y5X5 whole entry): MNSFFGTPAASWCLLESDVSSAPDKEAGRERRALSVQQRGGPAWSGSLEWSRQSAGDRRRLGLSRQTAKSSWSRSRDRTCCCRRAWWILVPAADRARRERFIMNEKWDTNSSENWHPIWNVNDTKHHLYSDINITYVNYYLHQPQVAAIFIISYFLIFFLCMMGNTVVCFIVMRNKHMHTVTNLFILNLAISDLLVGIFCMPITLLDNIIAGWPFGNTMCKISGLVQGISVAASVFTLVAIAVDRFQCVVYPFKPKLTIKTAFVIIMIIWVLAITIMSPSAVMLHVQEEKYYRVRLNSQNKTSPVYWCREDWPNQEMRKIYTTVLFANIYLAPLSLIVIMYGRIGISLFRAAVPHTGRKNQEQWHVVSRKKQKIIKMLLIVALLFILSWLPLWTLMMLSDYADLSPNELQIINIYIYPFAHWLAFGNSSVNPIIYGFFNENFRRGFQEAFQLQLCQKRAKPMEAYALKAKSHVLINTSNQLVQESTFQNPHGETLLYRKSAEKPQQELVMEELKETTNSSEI

human NPFF1R [2] = biological target: T2, human NPFF1R (Homo sapiens, UniProt Q9GZQ6); assay: Radioligand competition binding with [125I]-1-DMe-NPFF; set-up: expressed in transfected cells; HEK293-Glo20F cells (cAMP)
T2 sequence (Q9GZQ6 whole entry): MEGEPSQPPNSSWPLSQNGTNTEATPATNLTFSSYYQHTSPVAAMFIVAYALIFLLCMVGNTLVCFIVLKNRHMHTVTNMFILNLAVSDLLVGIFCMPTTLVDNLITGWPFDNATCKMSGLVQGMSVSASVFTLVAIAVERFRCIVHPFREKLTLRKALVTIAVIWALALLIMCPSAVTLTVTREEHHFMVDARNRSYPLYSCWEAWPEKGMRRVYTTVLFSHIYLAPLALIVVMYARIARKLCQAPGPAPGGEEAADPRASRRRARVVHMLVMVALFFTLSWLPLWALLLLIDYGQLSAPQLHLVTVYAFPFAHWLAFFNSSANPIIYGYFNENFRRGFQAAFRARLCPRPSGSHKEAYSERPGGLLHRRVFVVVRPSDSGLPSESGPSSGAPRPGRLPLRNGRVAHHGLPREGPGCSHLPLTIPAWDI

NPFF2R [3] = biological target: T1, NPFF2R; assay: as above; set-up: expressed in transfected cells; HEK293-Glo20F cells (cAMP)
human MOPr [4] = biological target: T3, human MOPr (Homo sapiens, UniProt P35372); assay: BRET1 β-arrestin-2 recruitment assay; type: cell-based; set-up: expressed in transfected cells; host or cells: HEK293 cells stably expressing eYFP-β-arrestin-2, transiently transfected with the Rluc8-MOP plasmid; settings: for EC50: Table 3B, — = non-detectable recruitment, read-out: MOPr (β-arrestin-2) EC50; for Emax: read-out: MOPr (β-arrestin-2) Emax;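 for MOPr (β-arrestin-2) Emax: Emax relative to maximal DAMGO-induced BRET as 100%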
T3 sequence (P35372 whole entry): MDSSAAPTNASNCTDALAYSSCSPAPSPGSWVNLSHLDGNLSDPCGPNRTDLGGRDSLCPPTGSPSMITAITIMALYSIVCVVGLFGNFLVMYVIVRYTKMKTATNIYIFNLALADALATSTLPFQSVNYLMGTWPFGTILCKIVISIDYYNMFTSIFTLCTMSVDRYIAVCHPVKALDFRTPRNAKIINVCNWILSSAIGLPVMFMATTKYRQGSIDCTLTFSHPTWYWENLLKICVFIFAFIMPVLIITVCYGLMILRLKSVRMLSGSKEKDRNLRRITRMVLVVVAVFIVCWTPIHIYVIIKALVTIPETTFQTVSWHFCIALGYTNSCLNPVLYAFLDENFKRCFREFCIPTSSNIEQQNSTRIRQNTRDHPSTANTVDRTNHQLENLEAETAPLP
Protocol: Peak response amplitudes were normalized to basal and maximal (cells permeabilized with 20 μM digitonin) fluorescence levels. 1.8. β-Arrestin-2 recruitment assay The β-arrestin-2 recruitment assay was performed as described [34; 45] with minor modifications. Briefly, two days prior the experiment, HEK293 cells stably expressing eYFP-tagged β-arrestin-2 were transfected with the plasmid encoding Rluc8-MOP receptor. β-Arrestin-2 recruitment was measured at 37° C. in presence of 5 μM Coelenterazine H, 5 min after agonist addition.

human MOPr [5] = biological target: T3, human MOPr; assay: cell-based; type: cell-based; set-up: expressed in transfected cells; HEK293-Glo20F cells (cAMP); settings: for EC50: read-out: MOPr (cAMP) EC50; for Emax: read-out: MOPr (cAMP) Emax
Method in brief: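 GTPγS binding used membranes of CHO cells expressing NPFF1R or NPFF2R, stimulated by RF-amide peptides or test compounds. cAMP was measured in HEK293 cells stably carrying Glosensor-20F, with or without stable expression of an opioid receptor or NPFF1R, in the presence of 1 mM D-luciferin.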

human MOPr [6] = biological target: T3, human MOPr; assay: Radioligand competition binding with [3H]-diprenorphine; set-up: expressed in transfected cells; HEK293-Glo20F cells (cAMP)
human NPFF1R [7] = biological target: T2, human NPFF1R; assay: [35S]-GTPγS binding assay; type: biochemical; set-up: expressed in transfected cells
Protocol: (§1) Stimulation by endogenous RF-amide peptides or test compounds for [^35S]-GTPγS binding to membranes from CHO cells expressing human NPFF1R or NPFF2R, were examined as reported. 1.6. Glo-Sensor cAMP Assay cAMP accumulation assay was essentially done as described with the following modifications: HEK293 cells stably expressing cAMP Glosensor-20F were used, with or without additional stable expression of each individual opioid receptor or NPFF1R. The cAMP responses were measured in presence of D-luciferin (1 mM).

NPFF2R [8] = biological target: T1, NPFF2R; assay: [35S]-GTPγS binding assay; type: biochemical; set-up: expressed in transfected cells
Protocol: as §1
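Throughout, for MOPr (cAMP) Emax: Emax relative to DAMGO as 100%.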

Compound	NPFF2R (cAMP) Agonist mode (NPFF2R [1])	IC50 (human NPFF1R [2]) [µM]	IC50 (NPFF2R [3]) [µM]	EC50 (human MOPr [4]) [µM]	Emax (human MOPr [4]) [%]	EC50 (human MOPr [5]; Table 3B) [µM]	Emax (human MOPr [5]) [%]	Ki (human NPFF1R [2]) [µM]	Ki (NPFF2R [3]) [µM]	Ki (human MOPr [6]) [µM]	EC50 (human MOPr [5]; Table 3a, HEK293-Glo20F-hMOPr cells) [µM]	EC50 (human NPFF1R [7]) [µM]	Emax (human NPFF1R [7]; relative to RFRP3) [%]	EC50 (NPFF2R [8]) [µM]	Emax (NPFF2R [8]) [%]
Cc1cc(O)cc(C)c1C[C@H](N)C(=O)N[C@H](CCCNC(=N)N)C(=O)N[C@H]1Cc2ccccc2CN(CCC(=O)N[C@@H](CCCN2CCC(Cc3ccccc3)CC2)C(=O)N[C@H](C(N)=O)C(C)C)C1=O [DP0001, H-Dmt-D-Arg-Aba-β-Ala-Bpa-Val-NH2] (H-[Dmt][dR][X1][Nva(5-(4-Bn-piperidin-1-yl))]V-NH2)	Partial	~0.5	< 0.05	0.101	52	0.0169 ± 0.0083	124	–	–	–	–	–	–	–	–
CC[C@H](C)[C@H](NC(=O)[C@H](CCCN1CCC(Cc2ccccc2)CC1)NC(=O)CCN1Cc2ccccc2C[C@H](NC(=O)[C@@H](CCCNC(=N)N)NC(=O)[C@@H](N)Cc2c(C)cc(O)cc2C)C1=O)C(N)=O [DP0002, H-Dmt-D-Arg-Aba-β-Ala-Bpa-Ile-NH2] (H-[Dmt][dR][X1][Nva(5-(4-Bn-piperidin-1-yl))]I-NH2)	Partial	0.05 to 0.5	< 0.05	0.045	49	0.0089 ± 0.0026	110	–	–	–	–	–	–	–	–
Cc1cc(O)cc(C)c1C[C@H](N)C(=O)N[C@H](CCCNC(=N)N)C(=O)N[C@H]1Cc2ccccc2CN(CCC(=O)N[C@@H](CCCN2CCC(Cc3ccccc3)CC2)C(=O)N[C@@H](CC(C)C)C(N)=O)C1=O [DP0003, H-Dmt-D-Arg-Aba-β-Ala-Bpa-Leu-NH2] (H-[Dmt][dR][X1][Nva(5-(4-Bn-piperidin-1-yl))]L-NH2)	Partial	0.05 to 0.5	< 0.05	0.037	38	0.0201 ± 0.01	70	–	–	–	–	–	–	–	–
Cc1cc(O)cc(C)c1C[C@H](N)C(=O)N[C@H](CCCNC(=N)N)C(=O)N[C@H]1Cc2ccccc2CN(CCC(=O)N[C@@H](CCCCNc2nc3ccccc3s2)C(=O)N[C@@H](Cc2ccccc2)C(N)=O)C1=O [KGFF16, H-Dmt-D-Arg-Aba-β-Ala-Lys(Bth)-Phe-NH2] (H-[Dmt][dR][X1]K(X4)F-NH2)	–	–	–	–	–	–	93 ± 6	0.08 ± 0.013	0.0104 ± 0.0023	0.0026 ± 0.0013	0.0062 ± 0.002	0.273 ± 0.115	51 ± 7	0.526 ± 0.012	88 ± 12
